For three molecules, residual activity results are on record in ChEMBL document CHEMBL5649166, “RIP3 induces apoptosis independent of pronecrotic kinase activity” (Mol Cell, 2014).

Assay [1] concerns the target Protein-tyrosine kinase 6 (Homo sapiens) (UniProt Q13882). In words: Inhibition of human BRK using poly[Glu:Tyr] (4:1) as substrate at 1 uM in presence of 32P-ATP by Hotspot assay relative to control; values are per cent of control.
The target in assay [2] is Serine/threonine-protein kinase pim-1 (Homo sapiens) (UniProt P11309). In words: Inhibition of human PIM1 using RSRHSSYPAGT as substrate at 1 uM in presence of 32P-ATP by Hotspot assay relative to control; values are per cent of control.
Chain of Serine/threonine-protein kinase pim-1 (Homo sapiens) (P11309 whole entry, looked up): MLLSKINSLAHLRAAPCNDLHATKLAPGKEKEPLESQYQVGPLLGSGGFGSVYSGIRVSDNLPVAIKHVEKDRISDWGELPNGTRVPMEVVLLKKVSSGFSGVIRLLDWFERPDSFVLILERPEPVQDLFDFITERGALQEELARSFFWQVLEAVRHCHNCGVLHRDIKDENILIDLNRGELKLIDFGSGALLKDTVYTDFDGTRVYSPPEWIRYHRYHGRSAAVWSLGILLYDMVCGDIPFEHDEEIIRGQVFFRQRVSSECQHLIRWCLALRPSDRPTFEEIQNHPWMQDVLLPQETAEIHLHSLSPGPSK
Assay [3] addresses Mitogen-activated protein kinase kinase kinase kinase 5 (Homo sapiens) (UniProt Q9Y4K4). In words: Inhibition of human KHS/MAP4K5 using myelin basic protein as substrate at 1 uM in presence of 32P-ATP by Hotspot assay relative to control; values are per cent of control.
The target of assay [4] is Homeodomain-interacting protein kinase 2 (Homo sapiens) (UniProt Q9H2X6). The assay is described as follows: Inhibition of human HIPK2 using myelin basic protein as substrate at 1 uM in presence of 32P-ATP by Hotspot assay relative to control; values are per cent of control.
Chain of Homeodomain-interacting protein kinase 2 (Homo sapiens) (Q9H2X6 whole entry, looked up): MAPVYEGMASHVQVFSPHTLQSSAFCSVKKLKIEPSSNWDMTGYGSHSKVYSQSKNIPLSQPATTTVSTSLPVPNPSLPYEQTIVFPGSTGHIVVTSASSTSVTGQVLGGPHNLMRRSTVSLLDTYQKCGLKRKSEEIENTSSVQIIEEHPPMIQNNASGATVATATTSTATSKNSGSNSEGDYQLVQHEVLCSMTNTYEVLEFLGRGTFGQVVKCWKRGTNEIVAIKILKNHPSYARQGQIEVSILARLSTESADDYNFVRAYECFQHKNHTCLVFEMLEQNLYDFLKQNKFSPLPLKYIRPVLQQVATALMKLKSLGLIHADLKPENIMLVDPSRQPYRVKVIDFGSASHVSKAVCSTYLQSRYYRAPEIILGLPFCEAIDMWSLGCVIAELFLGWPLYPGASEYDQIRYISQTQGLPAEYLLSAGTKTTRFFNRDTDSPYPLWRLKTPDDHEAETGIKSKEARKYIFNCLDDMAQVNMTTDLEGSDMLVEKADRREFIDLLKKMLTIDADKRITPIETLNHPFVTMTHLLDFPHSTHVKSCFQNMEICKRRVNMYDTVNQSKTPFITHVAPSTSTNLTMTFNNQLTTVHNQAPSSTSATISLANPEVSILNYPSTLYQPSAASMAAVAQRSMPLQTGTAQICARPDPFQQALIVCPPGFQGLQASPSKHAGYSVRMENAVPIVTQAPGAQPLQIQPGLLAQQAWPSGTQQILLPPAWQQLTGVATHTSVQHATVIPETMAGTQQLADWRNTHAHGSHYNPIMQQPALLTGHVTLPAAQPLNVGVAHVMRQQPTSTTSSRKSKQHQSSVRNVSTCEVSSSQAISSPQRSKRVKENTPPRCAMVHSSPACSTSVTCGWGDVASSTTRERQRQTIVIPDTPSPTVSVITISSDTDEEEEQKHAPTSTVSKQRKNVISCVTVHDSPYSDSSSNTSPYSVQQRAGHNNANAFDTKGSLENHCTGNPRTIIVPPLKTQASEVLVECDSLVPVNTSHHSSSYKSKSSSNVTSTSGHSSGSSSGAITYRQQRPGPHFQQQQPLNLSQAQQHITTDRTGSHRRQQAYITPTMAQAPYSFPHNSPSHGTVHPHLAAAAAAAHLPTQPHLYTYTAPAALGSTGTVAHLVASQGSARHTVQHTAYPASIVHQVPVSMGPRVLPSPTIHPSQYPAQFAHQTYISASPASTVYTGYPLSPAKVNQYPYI
Assay [5] has as its target T1, Serine/threonine-protein kinase TAO3 (Homo sapiens) (UniProt Q9H2K8).
T1 sequence (whole entry): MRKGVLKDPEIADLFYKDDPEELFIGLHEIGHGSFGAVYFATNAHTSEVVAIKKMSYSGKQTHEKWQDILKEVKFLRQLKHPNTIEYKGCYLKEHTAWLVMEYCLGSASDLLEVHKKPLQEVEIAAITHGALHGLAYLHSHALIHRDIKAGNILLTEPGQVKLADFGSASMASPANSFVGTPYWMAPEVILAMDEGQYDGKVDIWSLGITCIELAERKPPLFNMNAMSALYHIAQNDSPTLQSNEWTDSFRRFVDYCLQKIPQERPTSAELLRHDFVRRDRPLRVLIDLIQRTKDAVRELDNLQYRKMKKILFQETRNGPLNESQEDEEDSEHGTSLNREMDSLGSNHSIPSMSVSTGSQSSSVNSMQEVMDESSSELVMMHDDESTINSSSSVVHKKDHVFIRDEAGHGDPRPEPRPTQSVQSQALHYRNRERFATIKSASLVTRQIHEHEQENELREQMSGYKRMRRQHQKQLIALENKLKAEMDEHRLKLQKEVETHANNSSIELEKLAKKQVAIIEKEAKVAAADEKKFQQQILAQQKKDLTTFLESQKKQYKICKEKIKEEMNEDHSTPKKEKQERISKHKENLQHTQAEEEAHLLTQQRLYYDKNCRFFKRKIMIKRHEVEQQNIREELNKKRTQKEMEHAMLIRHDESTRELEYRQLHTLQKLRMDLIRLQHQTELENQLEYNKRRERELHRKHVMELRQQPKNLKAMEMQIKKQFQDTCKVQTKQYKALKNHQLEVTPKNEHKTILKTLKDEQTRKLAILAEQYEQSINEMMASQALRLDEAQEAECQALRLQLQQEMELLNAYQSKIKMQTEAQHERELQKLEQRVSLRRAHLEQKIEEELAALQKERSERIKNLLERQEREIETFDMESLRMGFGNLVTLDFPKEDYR
In words: Inhibition of human TAOK3/JIK using myelin basic protein as substrate at 1 uM in presence of 32P-ATP by Hotspot assay relative to control; values are per cent of control.

Assay [6] has as its target T2, Ephrin type-B receptor 2 (Homo sapiens) (UniProt P29323).
T2 sequence (whole entry): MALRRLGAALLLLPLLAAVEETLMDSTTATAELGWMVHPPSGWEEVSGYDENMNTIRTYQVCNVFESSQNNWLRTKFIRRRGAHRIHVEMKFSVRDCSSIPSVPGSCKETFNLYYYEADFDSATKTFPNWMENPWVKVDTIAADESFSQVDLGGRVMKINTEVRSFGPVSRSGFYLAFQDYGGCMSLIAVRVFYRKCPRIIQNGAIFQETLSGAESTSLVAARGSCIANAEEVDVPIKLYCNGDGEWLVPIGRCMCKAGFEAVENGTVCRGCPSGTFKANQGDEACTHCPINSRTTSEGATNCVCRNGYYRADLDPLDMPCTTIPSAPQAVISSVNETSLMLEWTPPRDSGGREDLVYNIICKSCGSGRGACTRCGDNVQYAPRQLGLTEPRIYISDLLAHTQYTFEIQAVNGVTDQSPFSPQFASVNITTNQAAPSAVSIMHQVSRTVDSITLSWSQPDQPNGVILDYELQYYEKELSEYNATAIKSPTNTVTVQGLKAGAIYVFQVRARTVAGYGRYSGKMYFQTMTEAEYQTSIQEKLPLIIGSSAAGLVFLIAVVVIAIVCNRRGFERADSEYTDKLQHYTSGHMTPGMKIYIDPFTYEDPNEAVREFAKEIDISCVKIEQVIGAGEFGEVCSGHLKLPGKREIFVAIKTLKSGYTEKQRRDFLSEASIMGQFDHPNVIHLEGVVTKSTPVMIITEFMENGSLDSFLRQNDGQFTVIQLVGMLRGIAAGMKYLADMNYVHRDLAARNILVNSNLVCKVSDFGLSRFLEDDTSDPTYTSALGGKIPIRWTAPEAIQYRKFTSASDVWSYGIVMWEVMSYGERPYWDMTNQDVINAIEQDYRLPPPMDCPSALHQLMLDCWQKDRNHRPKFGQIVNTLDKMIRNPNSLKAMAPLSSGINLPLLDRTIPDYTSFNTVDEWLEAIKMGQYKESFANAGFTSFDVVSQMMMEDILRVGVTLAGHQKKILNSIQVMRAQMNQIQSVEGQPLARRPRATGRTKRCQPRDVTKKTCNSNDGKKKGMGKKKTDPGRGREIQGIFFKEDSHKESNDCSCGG
The assay is described as follows: Inhibition of human EPHB2 using poly[Glu:Tyr] (4:1) as substrate at 1 uM in presence of 32P-ATP by Hotspot assay relative to control; values are per cent of control.

The target in assay [7] is Calcium/calmodulin-dependent protein kinase kinase 2 (Homo sapiens) (UniProt Q96RR4). The assay is described as follows: Inhibition of human CAMKK2 using myelin basic protein as substrate at 1 uM in presence of 32P-ATP by Hotspot assay relative to control; values are per cent of control.
Chain of Calcium/calmodulin-dependent protein kinase kinase 2 (Homo sapiens) (Q96RR4 2-588 limits assumed): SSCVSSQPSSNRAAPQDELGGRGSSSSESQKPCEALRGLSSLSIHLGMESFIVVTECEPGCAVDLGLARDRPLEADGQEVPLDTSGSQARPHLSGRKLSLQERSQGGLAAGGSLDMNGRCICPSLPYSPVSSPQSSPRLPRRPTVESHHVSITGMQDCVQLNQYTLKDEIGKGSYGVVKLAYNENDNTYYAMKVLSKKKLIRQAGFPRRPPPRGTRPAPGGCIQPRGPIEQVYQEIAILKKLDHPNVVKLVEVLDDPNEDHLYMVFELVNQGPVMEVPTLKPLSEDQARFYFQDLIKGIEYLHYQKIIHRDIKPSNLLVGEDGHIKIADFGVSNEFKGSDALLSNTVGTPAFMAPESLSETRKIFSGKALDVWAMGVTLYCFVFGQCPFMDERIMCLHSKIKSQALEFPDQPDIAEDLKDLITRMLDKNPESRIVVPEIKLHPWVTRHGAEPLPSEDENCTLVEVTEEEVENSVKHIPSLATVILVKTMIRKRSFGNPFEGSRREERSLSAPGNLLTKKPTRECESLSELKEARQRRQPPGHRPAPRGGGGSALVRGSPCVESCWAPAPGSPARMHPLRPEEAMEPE

Chain of Mitogen-activated protein kinase kinase kinase kinase 5 (Homo sapiens) (Q9Y4K4 whole entry, looked up): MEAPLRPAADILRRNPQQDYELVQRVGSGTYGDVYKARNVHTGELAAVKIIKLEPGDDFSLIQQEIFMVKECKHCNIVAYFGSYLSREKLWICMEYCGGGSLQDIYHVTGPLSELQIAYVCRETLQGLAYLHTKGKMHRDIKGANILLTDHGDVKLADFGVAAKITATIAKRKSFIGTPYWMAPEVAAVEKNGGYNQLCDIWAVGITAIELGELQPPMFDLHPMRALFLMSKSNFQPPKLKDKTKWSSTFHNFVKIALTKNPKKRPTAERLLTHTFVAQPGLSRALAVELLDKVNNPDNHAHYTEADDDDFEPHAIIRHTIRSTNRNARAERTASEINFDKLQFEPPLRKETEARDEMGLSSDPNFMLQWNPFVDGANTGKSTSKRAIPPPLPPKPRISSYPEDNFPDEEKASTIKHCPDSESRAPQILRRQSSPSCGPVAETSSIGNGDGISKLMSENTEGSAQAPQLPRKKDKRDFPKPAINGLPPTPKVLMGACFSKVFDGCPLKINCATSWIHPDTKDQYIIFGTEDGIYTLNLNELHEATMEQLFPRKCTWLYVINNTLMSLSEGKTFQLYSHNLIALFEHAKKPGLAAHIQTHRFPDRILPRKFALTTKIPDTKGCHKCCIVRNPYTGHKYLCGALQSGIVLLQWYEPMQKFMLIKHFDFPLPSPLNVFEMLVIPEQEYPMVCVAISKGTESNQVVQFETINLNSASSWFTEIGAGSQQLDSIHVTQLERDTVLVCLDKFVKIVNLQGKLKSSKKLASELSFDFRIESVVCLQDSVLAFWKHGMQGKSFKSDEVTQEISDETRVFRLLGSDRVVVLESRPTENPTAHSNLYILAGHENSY
Chain of Protein-tyrosine kinase 6 (Homo sapiens) (Q13882 whole entry, looked up): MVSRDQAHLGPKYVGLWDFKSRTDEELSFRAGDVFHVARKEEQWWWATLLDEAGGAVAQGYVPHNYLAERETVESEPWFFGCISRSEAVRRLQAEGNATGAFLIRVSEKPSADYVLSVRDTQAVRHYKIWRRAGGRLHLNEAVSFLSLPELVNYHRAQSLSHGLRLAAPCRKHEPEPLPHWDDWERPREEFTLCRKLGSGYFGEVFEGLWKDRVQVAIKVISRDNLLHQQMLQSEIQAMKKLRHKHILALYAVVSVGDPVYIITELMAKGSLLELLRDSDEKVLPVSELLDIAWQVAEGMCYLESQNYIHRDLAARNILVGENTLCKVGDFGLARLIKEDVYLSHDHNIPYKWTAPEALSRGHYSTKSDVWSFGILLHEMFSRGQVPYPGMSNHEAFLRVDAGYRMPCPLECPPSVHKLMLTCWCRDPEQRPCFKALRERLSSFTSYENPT

`CNC(=O)c1ccc2c(c1)ncn2-c1ccc(CC(=O)OC(C)(C)C)cc1`: the residual activity in assay [1] is 29.9%; in assay [2], 98.5%; in assay [3], 89%; in assay [4], 88.1%; in assay [5], 95.2%; in assay [6], 95%. Also, the residual activity in assay [7] was determined as 87.7%.
As for `Cc1cc(-c2cnc(N)c3c(-c4ccc5scnc5c4)csc23)n(C)n1`, the residual activity in assay [1] turned out to be 8.67%; in assay [2] it was 98.4%; in assay [3] it was 64.3%; in assay [4] it was 95.9%; in assay [5], 99.4%; in assay [6], 31%. In addition, the residual activity in assay [7] stood at 87.7%.
In the case of `CC(C)S(=O)(=O)c1ccc2nccc(Nc3ccc4scnc4c3)c2c1`, the residual activity in assay [1] is 10.8%; in assay [2] it was 96.4%; in assay [3] it was 109%; in assay [4], 101%; in assay [5], 96.4%; in assay [6] it was 78.7%. For the same molecule, in assay [7], the residual activity turned out to be 92.3%.
